Assay results reported in ChEMBL document CHEMBL1130689, “Cathepsin B-sensitive dipeptide prodrugs. 2. Models of anticancer drugs paclitaxel (Taxol), mitomycin C and doxorubicin” (Bioorg Med Chem Lett, 1998).

Legend:
Rattus norvegicus = species: Rattus norvegicus; assay: The release rate of the free drug from the substrate in rat liver lysosomal preparation by rat liver lysosomal assay; assay type: ADME
[1] = The release rate of the free drug from the substrate in human plasma by human plasma stability assay; Not hydrolyzed; assay type: ADME, cell-free
[2] = The release rate of the free drug from the substrate in presence of Cathepsin B by Cathepsin B assay; assay type: ADME
[3] = The release rate of the free drug from the substrate in human plasma by human plasma stability assay; assay type: ADME, cell-free

Structure (SMILES)	T1/2 (Rattus norvegicus) [min]	T1/2 [1]	T1/2 [2] [min]	T1/2 [3] [h]
CC(=O)O[C@H]1C(=O)[C@@]2(C)C([C@H](OC(=O)c3ccccc3)[C@]3(O)C[C@H](OC(=O)[C@H](OC(=O)OCc4ccc(NC(=O)[C@H](CCCCN)NC(=O)[C@H](Cc5ccccc5)NC(=O)OCc5ccccc5)cc4)[C@@H](NC(=O)c4ccccc4)c4ccccc4)C(C)=C1C3(C)C)[C@]1(OC(C)=O)COC1C[C@@H]2O (some centres not stated)	19	Not hydrolyzed	540	–
CC(=O)O[C@H]1C(=O)[C@@]2(C)C([C@H](OC(=O)c3ccccc3)[C@]3(O)C[C@H](OC(=O)[C@H](O)[C@@H](NC(=O)c4ccccc4)c4ccccc4)C(C)=C1C3(C)C)[C@]1(OC(C)=O)COC1C[C@@H]2OC(=O)OCc1ccc(NC(=O)[C@H](CCCCN)NC(=O)[C@H](Cc2ccccc2)NC(=O)OC(C)(C)C)cc1 (some centres not stated)	66	Not hydrolyzed	40	–
COc1cccc2c1C(=O)c1c(O)c3c(c(O)c1C2=O)C[C@@](O)(C(=O)CO)C[C@@H]3OC1CC(NC(=O)OCc2ccc(NC(=O)[C@H](CCCCN)NC(=O)[C@H](Cc3ccccc3)NC(=O)OCc3ccccc3)cc2)C(O)C(C)O1 (some centres not stated)	29	Not hydrolyzed	8	–
COC12C(COC(N)=O)C3=C(C(=O)C(C)=C(N)C3=O)N1CC1C2N1C(=O)OCc1ccc(NC(=O)[C@H](CCCCN)NC(=O)[C@H](Cc2ccccc2)NC(=O)OC(C)(C)C)cc1 (some centres not stated)	24	–	10	149
